These results are taken from patent publication US7585523B2, “Composition and method to augment and sustain neurotransmitter production” (Targeted Medical Pharma, priority 2002, dated 2009).

Assay [1] has as its system heart rate. The experiment in a line: Continuous heart rate monitoring in 6 individuals, sustained effect. Type of assay: in vivo, human. As to conditions: baseline 0.0. On the procedure: In 6 individuals, heart rate experiments were performed to show the sustained effect of the combination of the five elements outlined in this invention. […] They sat quietly for […] to establish a baseline. They then on subsequent days ingested combination of the 5 elements described in this invention. The results are depicted in table 2 and FIG. 5. Where C is caffeine 150 mg, T is tyrosine 50 mg, CH is choline 200 mg, and GB is ginkgo biloba 120 mg.

Assay [2] concerns heart rate. Briefly: Continuous heart rate recording, one individual, components on successive days. It counts as in vivo, human. As to conditions: baseline as reference, time point not given (5, 10, 15, 30 minutes recorded), caffeine 150 mg, tyrosine 50 mg, histadine 100 mg, Ginkgo Biloba 120 mg, choline 120 mg. As to the method: To test the components of example 14, a series of experiments were performed using a continuous heart rate recorder. In an individual on successive days, heart rate was recoded as RR intervals in msec. The individual sat quietly for 30 minutes as baseline. Then on day 1 the combination of caffeine, 150 mg, with tyrosine, 50 mg, histadine, 100 mg, Ginkgo Biloba, 120 mg, and choline 120 mg was given. […] A percent change was calculated with the baseline as reference. On Day 2 caffeine alone was ingested using the same protocol. […] On day 5, ginkgo biloba was ingested.

Assay [3] deals with vasodilation of the skin (skin temperature). Briefly: Skin temperature probe test of skin vasodilation. The conditions noted are these: single ingredient given alone. Type of assay: in vivo, human. From the text: A person ingested the preparation designed to increase nitric oxide and acetylcholine in order to induce vasodilation (example 3). The preparation included choline, arginine, hawthorn berry, cocoa, dextrose, and cinnamon. A temperature probe designed to assess skin temperature measured vasodilation of the skin. The baseline skin temperature was 99 degrees Fahrenheit. Within fifteen minutes after ingestion of the capsules, the skin temperature increased to 101.3 degrees Fahrenheit and remained elevated for three hours. The next day arginine alone was given with no effect on skin temperature. The following day, choline alone was given with no effect on skin temperature. The preparation was given for two weeks when skin temperature was again measured. The skin temperature increased by two degrees and remained elevated for 60 minutes (FIG. 3).

For assay [4], the system named is appetite; heart rate and heart rate variability. The experiment in a line: Shell's earlier studies of attenuation of precursor formulations. Type of assay: in vivo. The conditions noted are these: Shell's studies dating to 1987.

`Cn1c(=O)c2c(ncn2C)n(C)c1=O` [Caffeine]: in the assay on heart rate [1] (5 min after ingestion), the “heart rate, 5 min” value was 3.0. Moreover, the “heart rate, 15 min” value in the assay with heart rate [1] (15 min after ingestion) is 1.3. In addition, the “heart rate, 30 min” value with heart rate [1] (30 min after ingestion) worked out at 0.0. Further, the “percent change in heart rate” value with heart rate [2] was found to be 3%.

Turning to `C[N+](C)(C)CCO` [Choline], the “percent change in heart rate” value in the assay on heart rate [2] was −4%. The “effect on skin temperature” value in assay [3] is recorded as “no effect”.

Regarding `N[C@@H](Cc1c[nH]cn1)C(=O)O` [Histadine], the “percent change in heart rate” value in the assay with heart rate [2] is reported as 0.2%.

With `N[C@@H](Cc1ccc(O)cc1)C(=O)O` [Tyrosine], in the assay with heart rate [2], the “percent change in heart rate” value is recorded as 1%. Also, the “time until appetite suppression is lost” value in assay [4] is “approximately 7 days”.

As to `N=C(N)NCCC[C@H](N)C(=O)O` [arginine], the “effect on skin temperature” value in assay [3] is on record as “no effect”.
